Columns and labels:
Type in all cases: functional
Conditions in all cases: values are per cent of control
[1] = Antiproliferative activity against human Hs 578T cells at 10 uM assessed as cell growth inhibition relative to control
SK-MEL-5 = test: Antiproliferative activity against human SK-MEL-5 cells at 10 uM assessed as cell growth inhibition relative to control
SK-MEL-2 = test: Antiproliferative activity against human SK-MEL-2 cells at 10 uM assessed as cell growth inhibition relative to control
SK-OV-3 = test: Antiproliferative activity against human SKOV3 cells at 10 uM assessed as cell growth inhibition relative to control
NCI-H322M = test: Antiproliferative activity against human NCI-H322M cells at 10 uM assessed as cell growth inhibition relative to control
SF-268 = test: Antiproliferative activity against human SF268 cells at 10 uM assessed as cell growth inhibition relative to control
PC-3 = test: Antiproliferative activity against human PC3 cells at 10 uM assessed as cell growth inhibition relative to control
LOX IMVI = test: Antiproliferative activity against human LOXIMVI cells at 10 uM assessed as cell growth inhibition relative to control
KM12 = test: Antiproliferative activity against human KM12 cells at 10 uM assessed as cell growth inhibition relative to control
NCI-H23 = test: Antiproliferative activity against human NCI-H23 cells at 10 uM assessed as cell growth inhibition relative to control
[2] = Antiproliferative activity against human […] cells at 10 uM assessed as cell growth inhibition relative to control
Malme-3M = test: Antiproliferative activity against human MALME-3M cells at 10 uM assessed as cell growth inhibition relative to control
MDA-MB-231 = test: Antiproliferative activity against human MDA-MB-231 cells at 10 uM assessed as cell growth inhibition relative to control
UACC-257 = test: Antiproliferative activity against human UACC257 cells at 10 uM assessed as cell growth inhibition relative to control
UACC-62 = test: Antiproliferative activity against human UACC62 cells at 10 uM assessed as cell growth inhibition relative to control
NCI-H460 = test: Antiproliferative activity against human NCI-H460 cells at 10 uM assessed as cell growth inhibition relative to control
SN12C = test: Antiproliferative activity against human SN12C cells at 10 uM assessed as cell growth inhibition relative to control
CCRF-CEM = test: Antiproliferative activity against human CCRF-CEM cells at 10 uM assessed as cell growth inhibition relative to control
HCT-15 = test: Antiproliferative activity against human HCT15 cells at 10 uM assessed as cell growth inhibition relative to control
OVCAR-8 = test: Antiproliferative activity against human OVCAR8 cells at 10 uM assessed as cell growth inhibition relative to control
EKVX = test: Antiproliferative activity against human EKVX cells at 10 uM assessed as cell growth inhibition relative to control
SNB-75 = test: Antiproliferative activity against human SNB75 cells at 10 uM assessed as cell growth inhibition relative to control
COLO 205 = test: Antiproliferative activity against human COLO205 cells at 10 uM assessed as cell growth inhibition relative to control
IGROV-1 = test: Antiproliferative activity against human IGROV1 cells at 10 uM assessed as cell growth inhibition relative to control
MDA-MB-468 = test: Antiproliferative activity against human MDA-MB-468 cells at 10 uM assessed as cell growth inhibition relative to control
SK-MEL-28 = test: Antiproliferative activity against human SK-MEL-28 cells at 10 uM assessed as cell growth inhibition relative to control
DU-145 = test: Antiproliferative activity against human DU145 cells at 10 uM assessed as cell growth inhibition relative to control
SF-295 = test: Antiproliferative activity against human SF295 cells at 10 uM assessed as cell growth inhibition relative to control
A498 = test: Antiproliferative activity against human A498 cells at 10 uM assessed as cell growth inhibition relative to control
M14 = test: Antiproliferative activity against human M14 cells at 10 uM assessed as cell growth inhibition relative to control
HCT-116 = test: Antiproliferative activity against human HCT116 cells at 10 uM assessed as cell growth inhibition relative to control
OVCAR-4 = test: Antiproliferative activity against human OVCAR4 cells at 10 uM assessed as cell growth inhibition relative to control
786-0 = test: Antiproliferative activity against human 786-0 cells at 10 uM assessed as cell growth inhibition relative to control
A549 = test: Antiproliferative activity against human A549 cells at 10 uM assessed as cell growth inhibition relative to control
SNB-19 = test: Antiproliferative activity against human SNB19 cells at 10 uM assessed as cell growth inhibition relative to control
HL-60(TB) = test: Antiproliferative activity against human HL-60(TB) cells at 10 uM assessed as cell growth inhibition relative to control
SW-620 = test: Antiproliferative activity against human SW620 cells at 10 uM assessed as cell growth inhibition relative to control
OVCAR-5 = test: Antiproliferative activity against human OVCAR5 cells at 10 uM assessed as cell growth inhibition relative to control
ACHN = test: Antiproliferative activity against human ACHN cells at 10 uM assessed as cell growth inhibition relative to control
CAKI-1 = test: Antiproliferative activity against human Caki1 cells at 10 uM assessed as cell growth inhibition relative to control
HCC 2998 = test: Antiproliferative activity against human HCC2998 cells at 10 uM assessed as cell growth inhibition relative to control
NCI-H226 = test: Antiproliferative activity against human NCI-H226 cells at 10 uM assessed as cell growth inhibition relative to control
MOLT-4 = test: Antiproliferative activity against human MOLT4 cells at 10 uM assessed as cell growth inhibition relative to control
SF-539 = test: Antiproliferative activity against human SF539 cells at 10 uM assessed as cell growth inhibition relative to control
UO-31 = test: Antiproliferative activity against human UO31 cells at 10 uM assessed as cell growth inhibition relative to control
HOP-62 = test: Antiproliferative activity against human HOP62 cells at 10 uM assessed as cell growth inhibition relative to control
HOP-92 = test: Antiproliferative activity against human HOP92 cells at 10 uM assessed as cell growth inhibition relative to control
MCF7 = test: Antiproliferative activity against human MCF7 cells at 10 uM assessed as cell growth inhibition relative to control
HT-29 = test: Antiproliferative activity against human HT-29 cells at 10 uM assessed as cell growth inhibition relative to control
OVCAR-3 = test: Antiproliferative activity against human OVCAR-3 cells at 10 uM assessed as cell growth inhibition relative to control
U-251 = test: Antiproliferative activity against human U251 cells at 10 uM assessed as cell growth inhibition relative to control
T47D = test: Antiproliferative activity against human T47D cells at 10 uM assessed as cell growth inhibition relative to control
RXF 393 = test: Antiproliferative activity against human RXF393 cells at 10 uM assessed as cell growth inhibition relative to control
K562 = test: Antiproliferative activity against human K562 cells at 10 uM assessed as cell growth inhibition relative to control
BT-549 = test: Antiproliferative activity against human BT549 cells at 10 uM assessed as cell growth inhibition relative to control
NCI-H522 = test: Antiproliferative activity against human NCI-H522 cells at 10 uM assessed as cell growth inhibition relative to control
TK-10 = test: Antiproliferative activity against human TK10 cells at 10 uM assessed as cell growth inhibition relative to control

CCOC(=O)C[C@H]1[C@@H](O[Si](C)(C)C(C)(C)C)[C@H](n2cnc3c(N)ncnc32)O[C@@H]1CO
growth, % of control at 10 µM [1]: 102% | growth, % of control at 10 µM (SK-MEL-5): 81% | growth, % of control at 10 µM (SK-MEL-2): 106% | growth, % of control at 10 µM (SK-OV-3): 103% | growth, % of control at 10 µM (NCI-H322M): 91% | growth, % of control at 10 µM (SF-268): 98% | growth, % of control at 10 µM (PC-3): 85% | growth, % of control at 10 µM (LOX IMVI): 92% | growth, % of control at 10 µM (KM12): 109% | growth, % of control at 10 µM (NCI-H23): 107% | growth, % of control at 10 µM [2]: 99% | growth, % of control at 10 µM (Malme-3M): 93% | growth, % of control at 10 µM (MDA-MB-231): 90% | growth, % of control at 10 µM (UACC-257): 105% | growth, % of control at 10 µM (UACC-62): 73% | growth, % of control at 10 µM (NCI-H460): 101% | growth, % of control at 10 µM (SN12C): 85% | growth, % of control at 10 µM (CCRF-CEM): 83% | growth, % of control at 10 µM (HCT-15): 91% | growth, % of control at 10 µM (OVCAR-8): 103% | growth, % of control at 10 µM (EKVX): 75% | growth, % of control at 10 µM (SNB-75): 75% | growth, % of control at 10 µM (COLO 205): 109% | growth, % of control at 10 µM (IGROV-1): 90% | growth, % of control at 10 µM (MDA-MB-468): 94% | growth, % of control at 10 µM (SK-MEL-28): 112% | growth, % of control at 10 µM (DU-145): 93% | growth, % of control at 10 µM (SF-295): 97% | growth, % of control at 10 µM (A498): 98% | growth, % of control at 10 µM (M14): 99% | growth, % of control at 10 µM (HCT-116): 94% | growth, % of control at 10 µM (OVCAR-4): 97% | growth, % of control at 10 µM (786-0): 97% | growth, % of control at 10 µM (A549): 100% | growth, % of control at 10 µM (SNB-19): 103% | growth, % of control at 10 µM (HL-60(TB)): 89% | growth, % of control at 10 µM (SW-620): 103% | growth, % of control at 10 µM (OVCAR-5): 101% | growth, % of control at 10 µM (ACHN): 102% | growth, % of control at 10 µM (CAKI-1): 92% | growth, % of control at 10 µM (HCC 2998): 104% | growth, % of control at 10 µM (NCI-H226): 90% | growth, % of control at 10 µM (MOLT-4): 74% | growth, % of control at 10 µM (SF-539): 91% | growth, % of control at 10 µM (UO-31): 72% | growth, % of control at 10 µM (HOP-62): 91% | growth, % of control at 10 µM (HOP-92): 81% | growth, % of control at 10 µM (MCF7): 89% | growth, % of control at 10 µM (HT-29): 98% | growth, % of control at 10 µM (OVCAR-3): 98% | growth, % of control at 10 µM (U-251): 99% | growth, % of control at 10 µM (T47D): 82% | growth, % of control at 10 µM (RXF 393): 112% | growth, % of control at 10 µM (K562): 84% | growth, % of control at 10 µM (BT-549): 79% | growth, % of control at 10 µM (NCI-H522): 92% | growth, % of control at 10 µM (TK-10): 94%
